Data taken from patent US11357766B2, “Compositions and methods for treating cancer” (Texas Tech University System, priority 2017, dated 2022).

Legend:
pancreatic cancer cells = assay: Glycolysis, mitochondrial respiration and marker expression in pancreatic cancer cells; format: cell-based
[1] = test system: Akt, STAT3 and sonic hedgehog signaling in AsPC1, BxPC3, PANC1, and MIAPaCa2 cells; assay: Western blot analysis of whole cell lysates; format: cell-based, human; conditions: 48 hours
Protocol: Briefly, in FIG. 3A AsPC1 cells, FIG. 3B BxPC3 cells, FIG. 3C PANC1 cells, and FIG. 3D MIAPaCa2 cells, were treated with 5, 7.5 and 10 μM pimavanserin tartrate for 48 hours. Representative blots showing a concentration-dependent effect of pimavamserin tartrate on pAkt(S473), pSTAT3(Y705), c-Myc, Oct-4, SOX-2, NANOG, CD44, GLI1, cleaved caspase3. β-actin was used as a loading control. Figures shown are the representative blots of at least three independent tests.
Western blot analysis. AsPC1, BxPC3, PANC1, and MIAPaCa2 cells were treated with varying concentrations of pimavanserin tartrate for 48 hours. After 48 hours, cells were collected and subjected to PBS wash twice. The whole cell lysates were prepared using 4% (w/v) CHAPS in urea-tris buffer. Protein content in the lysates were estimated using Bradford reagent (Bio-rad, California, USA). 40 μg of protein from whole cell lysates were subjected to SDS-PAGE and the resolved proteins were transferred onto PVDF membrane. The membranes were probed for primary antibodies against pSTAT3(Y705), pAkt(S473), β-catenin, c-Myc, OCT4, SOX-2, NANOG, CD44, GLI1, cleaved caspase-3 and β-actin. All primary antibodies were procured from Cell Signaling Technologies (Danvers, Mass.) except β-actin (Sigma Aldrich, St. Louis, Mo.). Dilution factor was 1:1000 for all the antibodies from Cell Signaling and 1:2000 for β-actin antibody. The membranes were developed as described by the present inventors (16).
Inhibition of Akt, STAT3 and sonic hedgehog signaling by pimavanserin. Since significant growth suppressive effects and apoptosis by pimavanserin treatment were observed, the inventors further elucidated the molecular mechanism by which pimavanserin mediates the above-mentioned effects. The inventors performed western blot analysis using whole cell lysates from AsPC1, BxPC3, PANC1, and MIAPaCa2 cells treated with 0, 5, 7.5 and 10 μM pimavanserin for 48 hours. […] Akt and STAT3 signaling modulates OCT-4, SOX-2, NANOG to activate GLI1, a transcription factor involved in sonic hedgehog signaling (7).

[2] = test system: behavioral activity of mice; assay: Mice behavioral analysis (Versamax); format: in vivo; conditions: after 67 days of 10 mg/kg; mice bearing orthotopic pancreatic tumors
Protocol: In orthotopic experiment, behavioral activity was measured using Versamax (Accuscan instruments) after 67 days of oral administration of 10 mg/kg pimavanserin tartrate. The following were measured, in FIG. 6A total distance; FIG. 6B horizontal activity' FIG. 6C vertical activity; and FIG. 6D ambulatory activity. Values are plotted as mean±SEM.
Mice behavioral analysis. In orthotopic studies, the behavioral activity of mice was analyzed after chronic administration of pimavanserin tartrate for […]. The behavioral analysis was performed by Versamax (Accuscan Instruments Inc., Columbus, Ohio, USA) as previously described by the present inventors (7, 12).
Pimavanserin tartrate is an anti-psychotic drug used for the treatment of Parkinson disease. Owing to its action on the central nervous system, the behavioral activity of mice after long-term pimavanserin tartrate administration was assessed. The behavioral activity of mice was monitored after 67 days of 10 mg/kg pimavanserin treatment using Versamax (Accuscan Instruments Inc.).

PANC1 cells = assay: AnnexinV/FITC apoptosis assay; format: cell-based, human; conditions: 48 hours
Protocol: (§1) Briefly, the following cells were treated at 0.2×10^6, in FIG. 2A AsPC1 cells, FIG. 2B BxPC3 cells, and in FIG. 2C PANC1 cells, which were plated and treated with 5, 7.5 and 10 μM pimavanserin tartrate for 48 hours. Percent apoptotic cells was evaluated by AnnexinV/FITC apoptosis assay using Accuri C6 flow cytometer. Studies were repeated independently 3 times.
(§2) AnnexinV/FITC apoptosis assay. The effects of pimavanserin in inducing apoptosis were assessed by AnnexinV/FITC apoptosis assay. The assay was performed by FITC AnnexinV apoptosis detection kit (BD biosciences, San Jose, Calif., USA). Briefly, 0.2×10^6 pancreatic cancer cells were plated in each well of 6-well plate and incubate overnight for the cells to attach. The cells were then treated with varying concentrations of pimavanserin tartrate. After 48 hours, cells were trypsinized and suspended in PBS. Cells were washed and re-suspended in 150 μl of annexin binding buffer. The cells were then stained with 4 μl AnnexinV FITC and 4 μl propidium iodide for 20 minutes in dark. Post incubation, the volume was adjusted to 350 μl by adding annexin binding buffer. Samples were then analyzed by flow cytometer (Accuri C6, AnnArbor, Mich., USA) as previously described by the present inventors (7).
(§3) Pimavanserin induces apoptosis in pancreatic cancer cells. In order to determine the mechanism of anti-proliferative effects of pimavanserin tartrate, apoptosis induction by pimavanserin tartrate treatment was determined in AsPC1, BxPC3 and PANC1 pancreatic cancer cells by AnnexinV/FITC assay using flow cytometer. […] Treatment of AsPC1 and BxPC3 cells with 7.5 μM pimavanserin caused 2-fold increase in apoptotic cells (FIG. 2A, 2B), whereas in PANC1 cells, a 4-fold increase in apoptotic cells was observed (FIG. 2C). […] Induction of apoptosis by pimavanserin treatment in AsPC1, BxPC3 and PANC1 cells was confirmed by cleavage of caspase 3 (FIGS. 3A-3C).

AsPC1 cells = assay: AnnexinV/FITC apoptosis assay; format: cell-based, human; conditions: 7.5 μM, 48 hours
Protocol: as §1, §2, §3

BxPC3 cells = assay: AnnexinV/FITC apoptosis assay; format: cell-based, human; conditions: 48 hours
Protocol: as §1, §2, §3

[3] = 0, 5, 7.5 and 10 μM, all the cell lines tested, concentration dependent

CC(C)COc1ccc(CNC(=O)N(Cc2ccc(F)cc2)C2CCN(C)CC2)cc1 [pimavanserin, N-(4-fluorophenylmethyl)-N-(1-methylpiperidin-4-yl)-N′-(4-(2-methylpropyloxy)phenylmethyl)carbamide]
cleavage of caspase3 and PARP (pancreatic cancer cells; Western blot): increasing
expression of main metabolic markers Hexokinase-1, LDH-A and FOXM1 (pancreatic cancer cells; Western blot): inhibits
glycolysis and mitochondrial respiration (pancreatic cancer cells; pancreatic cancer cells): inhibits
key oncogenic markers pAkt(S473), pSTAT3 (Y705 & S727), β-catenin, Cyclin D1, Mc1-1, HER2, EGFR, VEGFR2, c-Myc, CD44, Oct-4 (pancreatic cancer cells; pancreatic cancer cells): inhibiting
expression of GLI1 [1, 3]: significantly inhibited
phosphorylation of STAT3 at Tyr705 [1, 3]: significantly inhibited
cancer stem cell markers OCT4, SOX-2, NANOG and CD44 [1]: remarkable inhibition
phosphorylation of Akt at Ser473 ([1]; AsPC1, BxPC3, and MIAPaCa2 cells): significantly reduced
expression of β-catenin ([1]; all the cell lines tested): reduced
cleavage of caspase 3 ([1]; pancreatic cancer cells, concentration dependent): significant cleavage
behavioral activity parameters (total distance, horizontal, vertical and ambulatory activity) vs control [2]: did not change
increase in apoptotic cells (PANC1 cells; 7.5 μM): 4 fold
increase in apoptotic cells (PANC1 cells; 10 μM): 5 fold
increase in apoptotic cells (AsPC1 cells): 2 fold
increase in apoptotic cells (BxPC3 cells; 7.5 μM): 2 fold
increase in apoptotic cells (BxPC3 cells; 10 μM): 5 fold
